According to the supplement of paper PMC11061612:

Tests used:
[1] = compound: Nc1ccn([C@@H]2O[C@H](CO)[C@@H](O)C2(F)F)c(=O)n1 [Gemcitabine]; conditions: max 0.3 µM
How it was run: (§1)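 Plates with 1536 wells received cancer cell lines in 7.5 μl of DMEM/F12 or RPMI containing 10% FBS. After 24 hours at 37°C and 5% CO2, cells were dosed for 72 hours with final DMSO typically 0.2%, and viability was read by CellTiter-Glo 2.0 luminescence scaled between blank-well and DMSO-well means. The single-agent IC50 was taken from a logistic fit of the dose responses made with a non-linear mixed effects model, that logistic curve having two parameters.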

[2] = compound: CC(=O)O[C@H]1C(=O)[C@@]2(C)[C@H]([C@H](OC(=O)c3ccccc3)[C@]3(O)C[C@H](OC(=O)[C@H](O)[C@@H](NC(=O)c4ccccc4)c4ccccc4)C(C)=C1C3(C)C)[C@]1(OC(C)=O)CO[C@@H]1C[C@@H]2O [Paclitaxel]; conditions: max 3 µM
How it was run: as §1

[3] = compound: Cc1nc(-c2cn3c(n2)-c2ccc(-c4cnn(C(C)(C)C(N)=O)c4)cc2OCC3)n(C(C)C)n1 [Taselisib]; conditions: max 10 µM
How it was run: as §1

[4] = compound: O=C(Nc1ccc2[nH]nc(-c3ccncc3)c2c1)[C@@H]1CCN(CC(=O)N2CCN(c3ccc(-c4ncccn4)cc3)CC2)C1; conditions: max 5 µM
How it was run: as §1

[5] = compound: COc1cc([C@@H]2c3cc4c(cc3[C@@H](O[C@@H]3O[C@@H]5CO[C@@H](C)O[C@H]5[C@H](O)[C@H]3O)[C@H]3COC(=O)[C@H]23)OCO4)cc(OC)c1O [Etoposide]; conditions: max 10 µM
How it was run: as §1

[6] = compound: C=CCn1c(=O)c2cnc(Nc3ccc(N4CCN(C)CC4)cc3)nc2n1-c1cccc(C(C)(C)O)n1 [AZD1775]; conditions: max 3 µM
How it was run: as §1

[7] = compound: CC(C)n1c(=O)n(C)c2cnc3cc(F)c(-c4ccc(OCCCN5CCCCC5)nc4)cc3c21 [AZD1390]; conditions: max 0.3 µM
How it was run: as §1

[8] = compound: COc1cc2ncnc(Nc3ccc(F)c(Cl)c3)c2cc1OCCCN1CCOCC1 [Gefitinib]; conditions: max 10 µM
How it was run: as §1

[9] = compound: O=c1[nH]cc(F)c(=O)[nH]1 [5-Fluorouracil]; conditions: max 20 µM
How it was run: as §1

[10] = compound: N#Cc1cnc(Nc2cc(NC[C@H]3CNCCO3)c(C(F)(F)F)cn2)cn1 [SRA737]; conditions: max 10 µM
How it was run: as §1

[11] = compound: CC(=O)Nc1cccc(-n2c(=O)n(C3CC3)c(=O)c3c(Nc4ccc(I)cc4F)n(C)c(=O)c(C)c32)c1 [Trametinib]; conditions: max 1 µM
How it was run: as §1

[12] = compound: CCc1c2c(nc3ccc(O)cc13)-c1cc3c(c(=O)n1C2)COC(=O)[C@]3(O)CC [SN-38]; conditions: max 0.3 µM
How it was run: as §1

[13] = compound: C1CN(CCC1(C(=O)N[C@@H](CCO)C2=CC=C(C=C2)Cl)N)C3=NC=NC4=C3C=CN4 [AZD5363]; conditions: max 10 µM
How it was run: as §1

[14] = compound: C1CC(C1)(C(=O)[O-])C(=O)[O-].N.N.[Pt+2] [Carboplatin]; conditions: max 10 µM
How it was run: as §1

[15] = compound: COc1cc(Nc2ncc3c(n2)-c2ccc(Cl)cc2C(c2c(F)cccc2OC)=NC3)ccc1C(=O)O [Alisertib]; conditions: max 10 µM
How it was run: as §1

[16] = compound: C[C@@H](c1ccc2nccn2c1)n1nnc2ncc(-c3cnn(C)c3)nc21 [Savolitinib]; conditions: max 1 µM
How it was run: as §1

[17] = compound: CC(=O)c1c(C)c2cnc(Nc3ccc(N4CCNCC4)cn3)nc2n(C2CCCC2)c1=O [Palbociclib]; conditions: max 10 µM
How it was run: as §1

[18] = compound: NC1(c2ccc(-c3nc4ccn5c(=O)[nH]nc5c4cc3-c3ccccc3)cc2)CCC1 [MK-2206]; conditions: max 10 µM
How it was run: as §1

[19] = compound: O=C(c1cc(Cc2n[nH]c(=O)c3ccccc23)ccc1F)N1CCN(C(=O)C2CC2)CC1 [Olaparib]; conditions: max 10 µM
How it was run: as §1

[20] = compound: C[C@@H](Oc1cc(-c2cnn(C3CCNCC3)c2)cnc1N)c1c(Cl)ccc(F)c1Cl [Crizotinib]; conditions: max 10 µM
How it was run: as §1

[21] = compound: CS(=O)(=O)CCNCc1ccc(-c2ccc3ncnc(Nc4ccc(OCc5cccc(F)c5)c(Cl)c4)c3c2)o1 [Lapatinib]; conditions: max 10 µM
How it was run: as §1

[22] = compound: Cc1cc2ncnn2cc1Nc1ncc2c(n1)n(C1CCOCC1)c(=O)n2C [AZD7648]; conditions: max 10 µM
How it was run: as §1

[23] = compound: C[C@@H](Nc1cc(F)cc(F)c1)c1cc(C(=O)N(C)C)cc2c(=O)cc(N3CCOCC3)oc12 [AZD8186]; conditions: max 10 µM
How it was run: as §1

[24] = compound: CCN(CCO)CCCOc1ccc2c(Nc3cc(CC(=O)Nc4cccc(F)c4)[nH]n3)ncnc2c1 [AZD2811]; conditions: max 1 µM
How it was run: as §1

[25] = compound: CC1(C)CCC(CN2CCN(c3ccc(C(=O)NS(=O)(=O)c4ccc(NCC5CCOCC5)c([N+](=O)[O-])c4)c(Oc4cnc5[nH]ccc5c4)c3)CC2)=C(c2ccc(Cl)cc2)C1 [Venetoclax]; conditions: max 1 µM
How it was run: as §1

[26] = compound: CN(C)CCCOc1ccc(-c2ccc3ncc4c(c3c2)n(C2CCOCC2)c(=O)n4C)cn1 [AZD0156]; conditions: max 3 µM
How it was run: as §1

[27] = compound: C[C@@H]1COCCN1C2=NC(=NC(=C2)C3(CC3)[S@](=N)(=O)C)C4=C5C=CNC5=NC=C4 [AZD6738]; conditions: max 10 µM
How it was run: as §1

[28] = compound: COc1nnc2ccc(N3CCC(c4ccc(OCCN5CCN(C)C(=O)[C@H]5C)cc4)CC3)nn12 [AZD5153]; conditions: max 1 µM
How it was run: as §1

[29] = compound: COc1cccc(OCCCN)c1-c1cc(Nc2cnc(C#N)cn2)n[nH]1 [Prexasertib]; conditions: max 1 µM
How it was run: as §1

[30] = compound: Cn1cnc2c(F)c(Nc3ccc(Br)cc3Cl)c(C(=O)NOCCO)cc21 [Selumetinib]; conditions: max 10 µM
How it was run: as §1

[31] = compound: Cc1c2c(nn1C)CSCc1cc(n(C)n1)CSc1cc(c3ccccc3c1)OCCCc1c(C(=O)O)n(C)c3c-2c(Cl)ccc13 [AZD5991]; conditions: max 1 µM
How it was run: as §1

[32] = compound: CC1=C(C(=CC=C1)Cl)NC(=O)C2=CN=C(S2)NC3=CC(=NC(=N3)C)N4CCN(CC4)CCO [Dasatinib]; conditions: max 2 µM
How it was run: as §1

[33] = compound: CC1=CN2[C@@H](C1)C=NC3=CC(=C(C=C3C2=O)OC)OCCCCCOC4=C(C=C5C(=C4)N=C[C@@H]6CC(=CN6C5=O)C)OC [SG3199]; conditions: max 0.001 µM
How it was run: as §1

[34] = compound: COc1cccc2c1C(=O)c1c(O)c3c(c(O)c1C2=O)C[C@@](O)(C(=O)CO)C[C@@H]3O[C@H]1C[C@H](N)[C@H](O)[C@H](C)O1 [Doxorubicin]; conditions: max 1 µM
How it was run: as §1

[35] = compound: CN(CC[C@H](CSC1=CC=CC=C1)NC2=C(C=C(C=C2)S(=O)(=O)NC(=O)C3=CC=C(C=C3)N4CCC(CC4)[C@H](C5=CC=CC=C5C6=CC=C(C=C6)Cl)O)S(=O)(=O)C(F)(F)F)CCO [AZD4320]; conditions: max 1 µM
How it was run: as §1

| Cell Line | IC50, cell viability 72 h [1] [nM] | IC50, cell viability 72 h [2] [nM] | IC50, cell viability 72 h [3] [nM] | IC50, cell viability 72 h [4] [nM] | IC50, cell viability 72 h [5] [nM] | IC50, cell viability 72 h [6] [nM] | IC50, cell viability 72 h [7] [nM] | IC50, cell viability 72 h [8] [µM] | IC50, cell viability 72 h [9] [µM] | IC50, cell viability 72 h [10] [µM] | IC50, cell viability 72 h [11] [nM] | IC50, cell viability 72 h [12] [nM] | IC50, cell viability 72 h [13] [µM] | IC50, cell viability 72 h [14] [µM] | IC50, cell viability 72 h [15] [µM] | IC50, cell viability 72 h [16] [nM] | IC50, cell viability 72 h [17] [µM] | IC50, cell viability 72 h [18] [µM] | IC50, cell viability 72 h [19] [µM] | IC50, cell viability 72 h [20] [µM] | IC50, cell viability 72 h [21] [µM] | IC50, cell viability 72 h [22] [µM] | IC50, cell viability 72 h [23] [µM] | IC50, cell viability 72 h [24] [nM] | IC50, cell viability 72 h [25] [nM] | IC50, cell viability 72 h [26] [nM] | IC50, cell viability 72 h [27] [µM] | IC50, cell viability 72 h [28] [nM] | IC50, cell viability 72 h [29] [nM] | IC50, cell viability 72 h [30] [µM] | IC50, cell viability 72 h [31] [nM] | IC50, cell viability 72 h [32] [nM] | IC50, cell viability 72 h [33] [nM] | IC50, cell viability 72 h [34] [nM] | IC50, cell viability 72 h [35] [nM] |
| --- | --- | --- | --- | --- | --- | --- | --- | --- | --- | --- | --- | --- | --- | --- | --- | --- | --- | --- | --- | --- | --- | --- | --- | --- | --- | --- | --- | --- | --- | --- | --- | --- | --- | --- | --- |
| HT-29 (Colorectal Carcinoma) | 161 | 18 | 2220 | 436 | > 10000 | 310 | > 300 | > 10 | > 20 | 4.64 | 11.9 | 64.7 | > 10 | > 10 | > 10 | > 1000 | > 10 | > 10 | > 10 | 6.73 | > 10 | > 10 | > 10 | > 1000 | > 1000 | > 3000 | 2.39 | 155 | 28.3 | 1 | > 1000 | > 2000 | > 1 | > 1000 | > 1000 |
| IHH-4 (Thyroid Gland Carcinoma) | 8.74 | 7 | > 10000 | 1220 | 1670 | 414 | > 300 | > 10 | 3.43 | > 10 | 85.3 | 5.41 | > 10 | > 10 | 5.97 | > 1000 | > 10 | > 10 | > 10 | 7.34 | > 10 | > 10 | > 10 | > 1000 | > 1000 | > 3000 | 4.34 | 680 | 99.4 | 4.47 | > 1000 | 961 | > 1 | 275 | > 1000 |
| KARPAS-620 (Plasma Cell Myeloma) | > 300 | 6.98 | 501 | > 5000 | > 10000 | 1480 | > 300 | > 10 | > 20 | > 10 | 929 | > 300 | 1.62 | > 10 | 10 | > 1000 | > 10 | 2.23 | > 10 | 4.75 | > 10 | > 10 | > 10 | > 1000 | 84.6 | > 3000 | > 10 | 167 | 80.4 | 5.72 | 59.9 | > 2000 | > 1 | > 1000 | 5.91 |
| KARPAS-1106P (B-Cell Non-Hodgkin's Lymphoma) | 18.3 | 134 | 462 | > 5000 | 1790 | 495 | > 300 | > 10 | > 20 | 2.18 | > 1000 | 3.05 | > 10 | > 10 | > 10 | > 1000 | > 10 | > 10 | > 10 | 4 | > 10 | > 10 | 0.705 | > 1000 | > 1000 | > 3000 | 3.96 | 132 | 11.2 | > 10 | 127 | 213 | > 1 | 146 | > 1000 |
| KATOIII (Gastric Carcinoma) | > 300 | > 3000 | > 10000 | 4460 | > 10000 | > 3000 | > 300 | > 10 | 14.3 | > 10 | 893 | > 300 | > 10 | > 10 | 1.79 | > 1000 | > 10 | > 10 | > 10 | > 10 | > 10 | > 10 | > 10 | > 1000 | > 1000 | > 3000 | > 10 | > 1000 | 420 | > 10 | > 1000 | > 2000 | > 1 | > 1000 | > 1000 |
